According to paper PMC10135567, “New Indole-3-Propionic Acid and 5-Methoxy-Indole Carboxylic Acid Derived Hydrazone Hybrids as Multifunctional Neuroprotectors” (Antioxidants, 2023):
Where a name gives a salt, the structure may show the parent alone.

Legend:
[1] = MTT cell viability assay (cytotoxicity), SH-SY5Y; details: human, SH-SY5Y neuroblastoma cells
Experimental: Neuroblastoma cell line SH-SY5Y (94030304) was acquired from the European Collection of Cell Cultures (ECACC, Salisbury, UK). Cells were cultured in a medium prepared with RPMI basic media supplemented with 10% heat-inactivated FBS (fetal bovine serum), 2 mM L-glutamine, 1% antibiotics (penicillin/streptomycin), and incubated at 37 °C in a humidified atmosphere containing 5% of CO2. The culture’s medium was replaced at a time interval of 2–3 days.
(§1) Cell viability was assessed via the mitochondrial reductase-dependent reaction of (3-(4,5-dimethylthiazol-2-yl)- 2,5-diphenyl tetrazolium bromide (MTT, cat. no. 475989, Calbiochem, Merck KGaA, Darmstadt, Germany). The SH-SY5Y and bEnd3 cell lines were seeded in 96-well plates at a density of 0.7 × 10^4 (bEnd3) or 2 × 10^4 (SH-SY5Y) cells/well and allowed to adhere for 24 h at 37 °C, 5% CO2. Then, the cells were incubated with the compounds (1–500 μM) for a preset time (24 h). For the solvent, the control cells were treated with DMSO corresponding to the highest concentration of DMSO in the samples (0.5% DMSO) in order to exclude its cytotoxic effect on the cells. For each concentration, a set of at least 6 wells were used. After incubation, the solution from each well was exchanged with fresh culture medium (100 µL/well), containing the MTT reagent (0.5 mg/mL) and incubated for 3 h at 37 °C in a humidified atmosphere and 5% CO2. The obtained formazan crystals were dissolved in 100 µL/well of 5% formic acid in propan-2-ol solution (or DMSO). The absorbance was measured at 570 nm via multiplate reader Tecan Infinite F200 PRO (Tecan Trading AG., Männedorf, Switzerland) or Synergy 2 (BioTek Instruments, Inc., Highland Park, Winooski, VT, USA).
(§2) Both the SH-SY5Y and bEnd3 cells were treated with the test compounds in a concentration range from 1 to 500 µM for 24 h.

[2] = MTT cell viability assay (cytotoxicity), bEnd3; assay type: cell-based, mouse; details: mouse, bEnd3 brain endothelial cells, 1–500 µM
Experimental: Mouse-brain endothelial cell line bEnd3 [36] (CRL-2299) was purchased from the American Type Culture Collection (ATCC, Manassas, VA, USA). The cells were cultured in DMEM (Dulbeco’s modified essential medium) (cat. no. 30-2002, ATCC, Manassas, VA, USA), supplemented with 10% heat-inactivated FBS (cat. no. F7524, Sigma-Aldrich Co. LLC, St. Louis, MO, USA), 1 mM L-glutamine (cat. no. G7513, Sigma-Aldrich Co. LLC, St. Louis, MO, USA) and 1× Antibiotic-Antimycotic solution (penicillin: streptomycin: amphotericin B (100 U/mL: 0.10 mg/mL: 0.25 µg/mL) (cat. no. A5955, Sigma-Aldrich Co. LLC, St. Louis, MO, USA) at 37 °C in a humidified atmosphere containing 5% CO2. The cells were passaged in 75 cm^2 flasks every 3–5 days via trypsinization (StableCell Trypsin solution, cat. no. T2610, Sigma-Aldrich Co. LLC, St. Louis, MO, USA).
as §1, §2

[3] = test system: isolated rat-brain synaptosomes; assay: 6-OHDA-induced neurotoxicity in isolated rat synaptosomes, synaptosomal viability; assay type: cell-based; details: Rattus norvegicus; 10 µM pre-incubation 30 min, then 150 µM 6-OHDA 1 h; read-out: synaptosomal viability (SV) preserved, as compared to 6-OHDA
Experimental: (§3) This neurotoxicity model was based on the metabolism and auto-oxidation of 6-hydroxy dopamine responsible for the reactive oxygen species and quinones generation, ultimately leading to neurotoxicity and neurodegeneration. The experiment was performed by pre-incubation of the synaptosomes with 10 µM of the compounds for 30 min, followed by the addition of 150 µM 6-hydroxy dopamine for induction of neurotoxicity. After 1 h, they were centrifuged twice for 1 min at 15,000 × g. After the second wash, the precipitates were resolved with buffer B and glucose.

[4] = Fe(II)-induced lipid peroxidation assay (LP assay, TBARS); assay type: biochemical; details: 90 µM, lecithin 1 mg/mL, 0.1 mM FeCl2; lower = stronger antioxidant
Experimental: (§4) The lipid peroxidation assay and a modification of the deoxyribose-degradation assay were used. Two types of measurement compositions in phosphate buffer (PB–K2HPO4/KH2PO4, pH 7.4) were prepared for both tests: (i) samples, containing the biologically relevant molecules (lecithin emulsion or deoxyribose), iron, and the tested hydrazones at the concentrations indicated below the figures; and (ii) controls, in which the tested hydrazones were omitted. The data for the sample activity were presented as a percentage of the control measurement.
The thiobarbituric-acid reactive-substance colorimetric test was performed in a model system of Fe(II)-induced lipid peroxidation as an emulsion prepared from egg yolk phospholipids. Each sample contained 1 mg/mL of lecithin. LP was initiated using 0.1 mM FeCl2. After 30 min incubation at 37 °C, 0.5 mL of 2.8% trichloroacetic acid solution and 0.5 mL of 0.5% thiobarbituric acid solution were added, following a second incubation at 100 °C for 20 min. Centrifugation at 3000 rpm for 20 min at 4 °C was performed, and we determined the absorbance value of the supernatant at 532 nm via Shimadzu UV-1601 UV-VIS spectrophotometer.

[5] = O-phenanthroline Fe(II) chelation test; assay type: physicochemical; details: 200 µM compound, FeCl2
Experimental: The Fe (II)-chelating activity of the tested hydrazones was determined by the O-phenanthroline method. A total of 1 mL sample solutions of 50 mM PB pH 7 contained 0.2 mM O-phenanthroline and 0.05 mM FeCl2 and 0.2 mM hydrazone. In the controls, the tested compounds were omitted. Absorbance was measured at 515 nm via GENESYS 50 UV-VIS spectrophotometer after incubation for 5 min at 37 °C. The data for the sample activity were presented as a percentage of the control measurement. Absorbance spectra of all the samples, the control, and the measurement compositions containing the tested hydrazones and Fe(II) at the concentrations used in the samples were measured.
To explain the results of both systems of Fe(II)-induced oxidative damage, we studied the potency of the tested compounds to chelate-iron (Fe(II)). This was studied by spectrophotometric determination of free iron (Fe(II)) using the ortho-phenanthroline test, as 1,10-phenantroline reacts rapidly with Fe(II) ions in weakly acidic media, generating an orange–red complex (ferroin) with characteristic absorbance spectra (molar absorptivity 1.10.104 (α = 0.20) at ~max 512 nm and a molar ratio 3:1 (R: Fe(II))). The generated complex was stable, and the bound Fe(II) was resistant to oxidation. Lower absorbance of the reaction mixture indicated higher Fe^2+-chelating activity.

[6] = Superoxide radical scavenging, xanthine/xanthine oxidase/NBT system; assay type: biochemical
Experimental: The 1 mL cuvette for the control contained 1 mM xanthine, 20 µL xanthine oxidase (100 IU/L), and 0.04 mM NBT [43, 44]. In the sample compositions, the tested hydrazones at different concentrations were added. All measurement compositions were incubated at 37 °C, and the absorbance was determined spectrophotometrically at 560 nm via Shimadzu UV-1601 UV-vis spectrophotometer.
The potential capability of the investigated compounds to prevent the superoxide-anion radical-induced NBT reduction was investigated spectrophotometrically by xanthine-oxidase assay. The assay was carried out at the final concentration of the tested compounds, at 1, 10, 50, and 100 µM.

[7] = Fe(II)-induced deoxyribose degradation assay; assay type: biochemical; details: 80 µM, 2-deoxyribose 0.5 mM, 0.1 mM FeCl2; lower = stronger antioxidant
Experimental: as §4
The deoxyribose (0.5 mM) damage was induced by adding FeCl2 (0.1 mM). The measurement compositions were incubated at 37 °C for 30 min. The next step comprised adding 0.5 mL of 2.8% trichloroacetic acid and 0.5 mL of thiobarbituric acid. Then, the samples were heated in boiling water for 20 min, and their absorbance was estimated at 532 nm (characteristic band for the generated chromophore) via Shimadzu UV-1601 UV-vis spectrophotometer.

[8] = test system: isolated rat-brain synaptosomes; assay: Synaptosomal viability (MTT), substances administered alone
Experimental: (§5) Preparation of the synaptosomes was carried out by multiple centrifugations using the Percoll gradient. Homogenization of the brains was performed in 10 volumes of cold buffer 1, which contained 5 mM HEPES and 0.32 M sucrose (pH = 7.4), followed by centrifugation at different speeds. For preparation of the gradient, the synaptosomes were isolated by Percoll reagent. Synaptosomes were resuspended and incubated in buffer 2, which contained 290 mM NaCl, 0.95 mM MgCl2x6H2O, 10 mM KCl, 2.4 mM CaCl2xH2O, 2.1 mM NaH2PO4, 44 mM HEPES, and 13 mM D-glucose. Incubations were performed in a 5% CO2 + 95% O2 atmosphere. The method of Lowry et al., using bovine serum albumin as a standard content, was applied for determination of synaptosomal protein [51].
Synaptosomal viability was monitored based on a (3-(4,5)-dimethylthiazol-2-yl)-2,5-diphenyl tetrazolium bromide) assay. After incubation with the compounds, synaptosomes were treated with 0.5 mg/mL solution of (3-(4,5)-dimethylthiazol-2-yl)-2,5-diphenyl tetrazolium bromide) for 10 min at […]. Then, the synaptosomes were centrifuged twice at 15,000× g for 1 min. The resulting formazan crystals were dissolved in DMSO (dimethyl sulfoxide), and the extinction was determined by spectrophotometric measurements at 580–660 nm. […]

[9] = test system: isolated rat-brain synaptosomes; assay: Level of reduced glutathione (GSH) in isolated synaptosomes, substances administered alone
Experimental: as §5
After the treatment with the tested compounds, the glutathione levels of the synaptosomes were determined with an Ellman reagent (DTNB). The GSH levels were evaluated based on the synaptosomal sediment, precipitated with 5% TCA, and centrifuged for 10 min at 4000× g. GSH levels in the supernatant were measured spectrophotometrically at 412 nm by a Spectro UV-vis split spectrophotometer (LaboMed. Inc., Los Angelis, California, USA). […]

SH-SY5Y cells = assay: H2O2-induced oxidative stress model in SH-SY5Y cells; assay type: cell-based, human; details: H2O2 1 mM 15 min
Experimental: The SH-SY5Y cells were seeded in 96-well plates at a density of 3.5 × 10^4/well in 100 μL of RPMI supplemented with FBS for 24 h. Then, the cell medium was aspirated, and the cells were treated with different concentrations of the compounds—1, 10, and 50 µM for 90 min. Afterwards, the SH-SY5Y cells were washed with PBS and were exposed to hydrogen peroxide (H2O2) (1 mM in PBS for 15 min) to induce oxidative stress. All well contents were replaced by fresh culture medium and incubated for 24 h. MTT assay was used to evaluate the amount of attached viable cells. Negative controls (cells without H2O2 treatment) were considered as 100% protection and H2O2-treated cells as 0% protection.
To evaluate the possible neuroprotective effects of the compounds, the SH-SY5Y cells were pre-treated with different concentrations (1, 10, 50 µM) for 90 min and then exposed to H2O2 (1 mM) for 15 min. The cell viability of all compounds was measured to verify their protective effect against the toxicity of hydrogen peroxide.

[10] = test system: isolated rat-brain synaptosomes; assay: 6-OHDA-induced neurotoxicity in isolated rat synaptosomes, GSH level; assay type: cell-based; details: 10 µM pre-incubation 30 min, then 150 µM 6-OHDA 1 h
Experimental: as §3

With `O=C(CCc1c[nH]c2ccccc12)NN=Cc1ccc(O)c(O)c1` [Compound 3b, N′-(3,4-Dihydroxybenzylidene)-3-(1H-indol-3-yl)propanehydrazide] the IC50 at 24 h [1] was 265 µM, the IC50 at 24 h [2] was 352 µM and the viability at 10 µM [3] was 33%. The “absorbance ratio sample/control (lipid peroxidation)” value (“absorbance ratio sample/control” for short) [4] was “below 65%”, the “absorbance at 515 nm compared to the controls (Fe(II) chelation)” value [5] was “statistically identical absorbance values at 515 nm, as compared to the controls” and the “decrease of NBT reduction as compared to the controls” value ([6]; 100 µM (highest tested concentration)) was “more than 40%”.
In the case of `O=C(CCc1c[nH]c2ccccc12)NN=Cc1ccc(O)cc1O` [Compound 3c, N′-(2,4-Dihydroxybenzylidene)-3-(1H-indol-3-yl)propanehydrazide], the IC50 at 24 h [1] is reported as 275 µM, the IC50 at 24 h [2] is reported as > 500 µM and the viability at 10 µM [3] is reported as 33%. The “absorbance ratio sample/control” value [4] was “below 65%”, the “absorbance ratio, % of the controls (deoxyribose degradation)” value [7] was “did not induce a modulating effect” and the “absorbance at 515 nm compared to the controls (Fe(II) chelation)” value [5] was “statistically identical absorbance values at 515 nm, as compared to the controls”. For the same molecule, the “absorbance ratio (NBT reduction, % of control)” value ([6]; 1, 10, 50 and 100 µM) was “did not influence the estimated absorbance ratio at any of the tested concentrations” and the melting point was 239 to 240 °C.
In the case of `NCCc1cc(O)c(O)cc1O` [Compound 6-OHDA, 6-hydroxydopamine], the “decrease of synaptosomal viability (SV) vs. non-treated synaptosomes” value ([8]; 150 µM) is reported as 55% and the “decrease of GSH level vs. non-treated synaptosomes” value ([9]; 150 µM) is reported as 50%.
For `C#CCN[C@@H]1CCc2ccccc21` [Rasagiline.HCl, Rasagiline], the IC50 at 24 h [1] was > 500 µM, the “protective effect: increased cell viability of SH-SY5Y vs. H2O2 group” value (SH-SY5Y cells; 10 µM pre-treatment 90 min) was 40% and the “protective effect: increased cell viability of SH-SY5Y vs. H2O2 group” value (SH-SY5Y cells; 50 µM pre-treatment 90 min) was 46%. The “reduction of synaptosomal viability (SV) vs. non-treated synaptosomes” value ([8]; 100 µM) was 25%, the “reduction of GSH level vs. non-treated synaptosomes” value ([9]; 100 µM) was “did not decrease” and the viability at 10 µM [3] was 67%. The “GSH level preserved, as compared to 6-OHDA” value [10] was 80%.
For `O=c1c(O)c(-c2ccc(O)c(O)c2)oc2cc(O)cc(O)c12` [quercetin, reference compound], the “absorbance ratio sample/control” value [4] was 23% and the “absorbance ratio, % of the controls (deoxyribose degradation)” value [7] was “about 50%”.
